Data from publication PMC7957188, “An antitumor peptide RS17‐targeted CD47, design, synthesis, and antitumor activity” (Cancer Medicine, 2021).
Where no end group is shown, it is not given here. The star is where a group is joined. FITC = O=C1OC2(c3ccc(O)cc3Oc3cc(O)ccc32)c2ccc(NC(=S)*)cc21; Acp = not defined here

Columns and labels:
SCC‐13 cells = assay: Flow cytometry binding of FITC‐RS17 to SCC‐13 cells; assay type: cell-based, human; conditions: 1 μM FITC‐RS17, 1 h, 37℃
Experimental: (§1) The peptides were synthesized using the solid‐phase peptide synthesis method. Amino acid activation phase included 1‐hydroxybenzotriazole (HOBt) and N, N′‐diisopropylcarbodiimide (DIC). Deprotection agent was piperidine (PIP). Following synthesis, the peptides were cleaved with 90% of trifluoroacetic acid (TFA) and precipitated with ether to obtain the crude product. The crude peptides were purified by HPLC and the molecular weight were measured by online ESI‐MS, respectively. Besides, the FITC‐RS17 peptide was prepared by coupling with FITC through the Acp active group to RS17. The product was purified and analyzed by the same process.
(§2) The SCC‐13 human cutaneous squamous cell carcinoma cell lines, HepG2 human HCC cell line, THP‐1 human mononuclear cell line, and mouse mononuclear/macrophage cell lines were from Chinese Academy of Sciences in Shanghai. SCC‐13 and HepG2 cells were incubated in DMEM medium which contains 100 μg/ml of streptomycin and 50 μg/ml of penicillin. The medium also contains 10% of fetal bovine serum from Gibco Life Technologies. […]
(§3) The binding of RS17 to the CD47‐expressing cells were assessed by the Flow cytometry technique. […]. ^14 In brief, HepG2 and SCC‐13 cells were collected and adjusted to 3 × 10^6 cells/ml. […] After washing with PBS, the cells were analyzed with a flow cytometer (Miltenyi Biotec GmbH). Data were analyzed with FlowJo 7.6.

HepG2 cells = assay: Flow cytometry binding of FITC‐RS17 to HepG2 cells; assay type: cell-based, human; conditions: 1 μM FITC‐RS17, 1 h, 37℃
Experimental: as §1, §2, §3

CD47 protein = target: T1, CD47 protein (Homo sapiens, UniProt Q08722); assay: Microscale thermophoresis (MST), RS17–CD47 interaction; assay type: binding; conditions: Monolith NT.115, NT‐Analysis, Cy5-labeled CD47 mixed 1:1 with diluted peptide, 5 min, room temperature, read-out: dissociation constant (Kd) for RS17 and CD47 interaction
T1 construct: CD47 protein was from Cloud‐Clone; purchased Cloud‐Clone
Experimental: CD47 protein was from Cloud‐Clone. The CD47 protein was dissolved in a buffer solution without primary amine compounds and exchanged by mixed column A. The CD47 protein was stained by Cy5 fluorescent dye (Ruixin Biological Technology) and after staining, the labeled protein was purified by column B. Finally, the RS17 peptides were diluted and mixed with the labeled protein in a 1:1 ratio. After incubating at room temperature for 5 min, samples were detected and data were processed by Monolith NT.115 and NT‐Analysis, which were from NanoTemper.
Microscale thermophoresis (MST) is an effective technique that accurately quantitates the interaction between two molecules. It depends on the thermo‐swimming movement of a molecule, which is a directional transfer of the molecule across a temperature gradient dependent on molecular properties such as molecular size, electric charge, and conformation. ^39 A Monolith NT.115 instrument was used as a platform to perform the MST experiment and the results were analyzed using the accompanying NT‐Analysis software.

[1] = Body weight / tolerability in nude mice, ex vivo experiment; conditions: 7 days
Experimental: Female Balb/c nude mice (4–5 weeks) were bred in the absence of pathogens to assess the antitumor activity of indirect therapies in vivo.
RFP‐positive HepG2 cells at a concentration of 2 × 10^7/ml were first co‐incubated for 1 h with 1 μM B6H12 (positive control) or RS17. The nude mice were separated into three groups (5 per group) and subcutaneously injected with 200 μl RFP‐positive HepG2 cells into the ventral side. Normal feeding lasted for 7 days. Body weight and tumor volume were measured in nude mice. Tumor dimensions were measured in two directions with and the formula of ½ × a × b ^2 (a, length; b, width) was used to calculate tumor volume. The intravital fluorescence intensity of the tumors were detected with PerkinElmer IVIS Spectrum on day 7.

RFP HepG2 cells = conditions: in vivo, sc, 20 mg/kg
Experimental: RFP (CMV‐Puro) lentiviral particles were purchased from HanBio. 5 × 10^4 HepG2 in DMEM medium were seeded into each well of a 12‐well plate in presence of 10% FBS. A 6 μg/ml of Polybrene and 20 MOI lentivirus were added to each well. The cells were resuspended in DMEM medium in presence of 8 μg/ml puromycin after a 48‐h transfection. DMEM medium with 8 μg/ml of puromycin was replaced every 2 days for 1 week. RFP‐positive HepG2 cells were then acquired by flow cytometry. Polybrene and puromycin were from Sigma. Nude mice were subcutaneously injected with 2 × 10^7 RFP HepG2 cells into the ventral side and separated into three groups (5 per group). One of the groups was selected as the experimental group and received a daily subcutaneous injection with RS17 (20 mg/kg), the other two groups represented a positive control and a blank control and received a daily subcutaneous injection with B6H12 (20 mg/kg) and PBS, respectively. Daily injections were administered for 28 days. Body weight, tumor volume, and imaging on day 28 were carried out described above.

[2] = target: CD47 on SCC-13 and HepG2 tumor cells (human (endogenous in SCC-13 and HepG2)) (UniProt Q08722)
Chain of CD47 on SCC-13 and HepG2 tumor cells (human (endogenous in SCC-13 and HepG2)) (Q08722 19-323): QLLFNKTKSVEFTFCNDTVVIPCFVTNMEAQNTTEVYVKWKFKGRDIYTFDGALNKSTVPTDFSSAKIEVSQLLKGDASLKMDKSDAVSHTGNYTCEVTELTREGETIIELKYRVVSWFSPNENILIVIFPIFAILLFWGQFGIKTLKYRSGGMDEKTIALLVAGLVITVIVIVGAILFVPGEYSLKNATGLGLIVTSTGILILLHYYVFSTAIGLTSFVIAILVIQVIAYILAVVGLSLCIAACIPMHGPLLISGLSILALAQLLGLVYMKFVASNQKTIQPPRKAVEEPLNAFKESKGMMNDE

For “FITC‐RS17: prepared by coupling with FITC through the Acp active group to RS17 ({FITC-Acp}-RRYKQDGGWSHWSPWSS; reading uncertain)”, the “binding of FITC‐RS17 to SCC‐13 cells (in words)” value (SCC‐13 cells) was “effectively bound” and the “binding of FITC‐RS17 to HepG2 cells (in words)” value (HepG2 cells) was “effectively bound”.

For RRYKQDGGWSHWSPWSS [RS17], the Kd (CD47 protein) was 3.86 ± 0.789 nM, the tolerability [1] was “well tolerated” and the “inhibition of tumor growth” value (RFP HepG2 cells) was > 50%.

For RRYKQDGGWSHWSPWSS [RS17 peptide], the in vivo: growth of HepG2 xenografts in nude mice with daily subcutaneous RS17 (20 mg/kg) for 28 days; pair blocked: CD47 on HepG2 and SIRPα on mouse macrophages [2] was > 50%.
